Patent publication US10921327B2, “Probes for quantitative imaging of thiols in various environments” (Baylor College of Medicine, priority 2014, dated 2021)
Where two headings read alike, the source gives them in different places.

Assays:
[1] = Reaction specificity of TQ Green: cysteine; settings: 0.1 mM cysteine, within 2 hours, PBS pH 7.4
Protocol: For clarity, data points for TQ Green reaction with BSA, Cysteine, and PBS were offset by 0.1 units from each other on the y axis. Data points represent the absorbance of reaction mixtures of TQ Green (32 μM) with cysteine (100 μM, blue), BSA (5 mM, green), GSH (20 mM red) and water (black) in PBS (pH 7.4) at 480 nm, the maximum absorption wavelength for TQ Green.
Free cysteine and the surface exposed cysteine residues on proteins inside cells could potentially compete with GSH in TQ Green reactions. It is known that, in contrast to the 1-10 mM concentrations of GSH inside cells, cysteine concentrations are in the range of 0.1-1 mM, approximately an order of magnitude lower than GSH levels. Assuming cysteine and GSH have similar reactivities, the presence of cysteine will introduce an error no more than 10%.

[2] = Equilibrium (dissociation constant) of probe and GSH reaction, UV-Vis/fluorescence; type: binding
Protocol: Applicants also determined Keq between TQ Green and GSH and the relationship of the ratiometric change as a function of GSH concentration. Kd′ is the apparent dissociation constant for the reaction between TQ Green and GSH. The following equation can be derived:
Plotting (R−Rmin)/(Rmax−R) as a function of GSH concentration afforded a superb linear relationship with r^2=0.999 (FIGS. 6-7).
TQ Green was dissolved in PBS buffer (10 mM, pH 7.4) containing 1% DMSO with concentration at 32 μM. GSH was dissolved in the same PBS buffer with concentration from 0-80 mM. Above solutions were mixed at 1:1 ratio. All solutions were protected with nitrogen and stored in glove box to prevent any oxygen entering the solution. Samples of all solutions were taken out at 1, 18, 72, and 144 hours after mixing. UV-Vis and fluorescence were measured for all solutions.
Compounds 3b-d were dissolved in DMSO (10 mM) and 1 eq of 2 M β-mercaptoethanol (BME) was added. Compounds 3a and TQ Green were dissolved in PBS buffer (10 mM, pH 7.4) with 1% DMSO. GSH solution was added to reach a final concentration of 80 mM with compound 3a at 10 μM and TQ Green at 16 μM, respectively. All solutions were then monitored continuously with UV-Vis and fluorimeter for 2 hours (Table 1).

- Kd ([2]; deduced from Kd′ and absorption values at 488 nm, read-out: Kd (equilibrium dissociation constant)): 1.6 mM
- Kd ([2]; reaction with various concentration of GSH in water/PBS pH 7.4, based on UV-Vis, read-out: Kd′ observed (apparent) dissociation constant): 14.8 mM
SMILES: CCN(CC)c1ccc2cc(/C=C/C(=O)c3ccc(C(=O)O)cc3Br)c(=O)oc2c1 [TQ Green]
- Reaction with cysteine [1]: did not observe appreciable reactions
